Data: article PMC5396162, “Self‐Assembled Bifunctional Peptide as Effective Drug Delivery Vector with Powerful Antitumor Activity” (Advanced Science, 2017)

What was measured:
[1] = In vitro release of DOC in PBS pH 7.4; format: physicochemical; settings: PBS pH 7.4, within 24 h
From the text: The mass spectrum of the HRK‐19 peptide was shown in Figure S1 of the Supporting Information. And it can be seen the mass of HRK‐19 peptide was 1959.80 g mol^−1, which was consistent with the theoretical mass (1959.20 g mol^−1). The HRK‐19 peptide had ≥95% purity, as confirmed by analytical reversed‐phase (RP)‐high performance liquid chromatography (HPLC) (Figure S2, Supporting Information). As shown in Figure S3 of the Supporting Information, the HRK‐19 peptide contains no apparent secondary structure such as helix and Beta turn. […] To prepare a tumor‐targeting peptide, in this study, Asn‐Gly‐Arg‐Arg‐Gly‐Asp (NGRRGD) and three amino acids (HAV) were conjugated with apoptosis‐inducing peptide sequence AVPIAQK, forming bifunctional peptide (HRK‐19 peptide, HAVRNGRRGDGGAVPIAQK). As shown schematically in Figure 2 A, self‐assembly of the DOC/peptide NPs was prepared by the film dispersion method. […] It can be seen that the DL, and particle size increased with increase of drug/copolymer ratio in feed, whereas, the EE decreased accordingly. In consideration of DL and stability, the sample of S2 was chose for further applications and was characterized in detail. The DL and EE of DOC were 4.52 ± 0.18% and 90.50 ± 3.68%. […]

A549 cells [2] = assay: Cell apoptosis assay (Annexin V-FITC/PI flow cytometry); format: cell-based, human; settings: A549, 24 h
Method: Given the effectiveness of transporting hydrophobic drug‐DOC into A549 cancer cells by the bifunctional peptide NPs, we carried out the cytotoxicity experiments to further evaluate the anticancer activity of DOC/peptide NPs on A549 by Flow cytometry analysis. Flow cytometry analysis was performed to monitor the percentage of cell apoptosis after the cells being stained by Annexin V‐Fluorescein isothiocyanate/propidium iodide (Annexin V‐FITC/PI) apoptosis detection kit, and A549 cells incubated in media only were used as control (Figure 6 A). The percentage of apoptosis of A549 cells (early and late apoptosis) incubated for 24 h with DOC/peptide containing DOC 5 × 10^−9 and 10 × 10^−9 M were 11.56 ± 0.91% and 20.66 ± 1.89%, respectively. For free DOC, they were 8.87 ± 0.79% and 15.73 ± 0.56%, respectively. Obviously, DOC‐loaded bifunctional peptide NPs induced significant cell apoptosis.
To investigate the apoptotic effect of the DOC/peptide NPs, flow cytometry was performed using an ESP Elite flow cytometer (BeckmaneCoulter, Miami, FL, USA) with FITC‐conjugated Annexin V/propidium iodide (PI, BD PharMingen) staining as per the manufacturer's instructions. A549 cells cultured in 6‐well plates were treated with DOC/peptide NPs, free DOC, and blank peptide. […] Both early apoptotic (Annexin V‐positive, PI‐negative) and late apoptotic (Annexin V‐positive and PI‐positive) cells were measured.

A549 cells [3] = assay: Microtubule formation (α-tubulin fluorescence microscopy); format: cell-based, human; settings: A549, 4 h
From the text: Agents targeting microtubules are often used in cancer therapy. The taxanes act to stabilize microtubules and dampen microtubule dynamics to prevent the normal formation of mitotic spindles.34 Both paclitaxel and DOC can bind to β‐tubulin in assembled tubulin, thereby reducing depolymerization and leading to cell death.35 Therefore, we examined the effects of DOC on microtubule formation and cell apoptosis on A549 cells. […] However, at 10 × 10^−9 M, DOC begins to arrest A549 cells by interfering with the assembling/disassembling microtubule spindle.
Figure 5 The effects of DOC on the microtubule formation on the A549 cell lines. A549 cells were seeded on coverslip and treated with docetaxel of indicated concentrations for 4 h. The microtubule was determined by fluorescence microscopy. The red indicates the α‐tubulin and the blue is the DAPI stain for DNA. Scale bar: 20 µm.
For the expression and localization of α‐tubulin, cells were incubated with the antibodies against α‐tubulin (Abcam, USA) followed by incubation with TRITC‐conjugated secondary antibodies. The images were obtained using a confocal microscope (DM6000 CS, Leica, Germany).

## CC(=O)O[C@@]12CO[C@@H]1C[C@H](O)[C@@]1(C)C(=O)[C@H](O)C3=C(C)[C@@H](OC(=O)[C@H](O)[C@@H](NC(=O)OC(C)(C)C)c4ccccc4)C[C@@](O)([C@@H](OC(=O)c4ccccc4)[C@H]21)C3(C)C [DOC, Docetaxel]
[1]
  Peak release of DOC, % of the total drug: 85.37 ± 1.83%
A549 cells [2]; DOC 5 × 10^−9 M
  Percentage of apoptosis (early and late apoptosis): 8.87 ± 0.79%
A549 cells [2]; DOC 10 × 10^−9 M
  Percentage of apoptosis (early and late apoptosis): 15.73 ± 0.56%
A549 cells [3]
  Concentration at which DOC begins to arrest cells by interfering with the microtubule spindle: 10 nM
